For test [1], the target named is Glutamate receptor ionotropic, NMDA 1 (Rattus norvegicus) (UniProt P35439). Put plainly: Percent inhibition of [3H]- 5,7- dichloro -kynurenic acid binding to glycine binding site of NMDA receptor at 10 ng/mL.
For test [2], the target named is Glutamate receptor ionotropic, NMDA 1 (Rattus norvegicus, UniProt P35439). Put plainly: Affinity for the glycine binding site of the NMDA receptor using [3H]- 5,7- dichloro -kynurenic acid as radio-ligand.
Test [3] has as its target Glutamate receptor ionotropic, NMDA 1 (Rattus norvegicus) (UniProt P35439). The test can be described thus: Percent inhibition of binding affinity for the glycine binding site of the NMDA receptor using [3H]5,7- dichloro -kynurenic acid at a concentration of 10 ng/mL.

Inhibition and Ki data for 19 compounds are collected here from ChEMBL document CHEMBL1128769, “Structure-activity relationships of tricyclic quinoxalinediones as potent antagonists for the glycine binding site of the NMDA receptor 2” (Bioorg Med Chem Lett, 1995).

What is called inhibition is the change of the read-out against control, counted positive when it falls. The low end stands for little suppression, the high end for strong suppression. As usually defined, the Ki is the equilibrium dissociation constant of an inhibitor or competing ligand from its target.

On to `O=C(CC1CCc2cc(Br)cc3[nH]c(=O)c(=O)n1c23)Nc1ccc(C(F)(F)F)cc1` (stereo not given), for which, in test [1], the inhibition turned out to be 1%.

With `NC(=O)CC1CCc2cc(Br)cc3[nH]c(=O)c(=O)n1c23` (stereo not given), the inhibition in test [1] stood at 28.9%.

For the compound `C[C@H]1Cc2cc(Cl)cc3[nH]c(=O)c(=O)n(c23)C1CC(=O)Nc1ccccc1` (stereo not given in full), affinity in test [2] was put at a Ki of 3.1 nM.

`O=C(O)CC1CCc2cc(Br)cc3[nH]c(=O)c(=O)n1c23` (stereo not given) gave an inhibition in test [1] of 68.7%. The inhibitory constant (Ki) in test [2] was 9.9 nM.

In turn, `O=C(CC1CCc2cc(Br)cc3[nH]c(=O)c(=O)n1c23)NC1CCCCC1` (stereo not given) returned an inhibition in test [1] of 23.8%.

Regarding `CC(=O)Nc1ccc(NC(=O)CC2CCc3cc(Br)cc4[nH]c(=O)c(=O)n2c34)cc1` (stereo not given), the inhibition in test [1] stood at 73%.

In turn, `C[C@H]1Cc2cc(Cl)cc3[nH]c(=O)c(=O)n(c23)C1CC(=O)O` (stereo not given in full) displayed a Ki in test [2] of 4.4 nM.

In test [3], `O=C(O)CC1CCc2cccc3[nH]c(=O)c(=O)n1c23` (stereo not given) gave an inhibition of 30.3%.

In test [1], `COc1ccc(NC(=O)CC2CCc3cc(Br)cc4[nH]c(=O)c(=O)n2c34)cc1` (stereo not given) had an inhibition of 67.5%.

As to `O=C(O)CC1CCc2cc(I)cc3[nH]c(=O)c(=O)n1c23` (stereo not given), the inhibition in test [1] is 76.2%. This compound returned an inhibition constant Ki in test [2] of 46.6 nM.

In test [3], `O=C(CC1CCc2cccc3[nH]c(=O)c(=O)n1c23)Nc1ccccc1` (stereo not given) returned an inhibition of 52.7%.

`Cc1ccc(NC(=O)CC2CCc3cc(Br)cc4[nH]c(=O)c(=O)n2c34)cc1` (stereo not given) had an inhibition in test [1] of 83.3%.

Compound `N#Cc1ccc(NC(=O)CC2CCc3cc(Br)cc4[nH]c(=O)c(=O)n2c34)cc1` (stereo not given) displayed an inhibition in test [3] of 3.8%.

Regarding `O=C(CC1CCc2cc(I)cc3[nH]c(=O)c(=O)n1c23)Nc1ccccc1` (stereo not given), in test [1], the inhibition came out at 46.7%. Further, the Ki in test [2] is 134 nM.

Take `O=C(CC1CCc2cc(Br)cc3[nH]c(=O)c(=O)n1c23)Nc1ccc([N+](=O)[O-])cc1` (stereo not given): the inhibition in test [3] came out at 21.5%.

As for `O=C(O)CC1CCc2cc(Cl)cc3[nH]c(=O)c(=O)n1c23` (stereo not given), the inhibition in test [1] amounted to 90.3%. For the same compound, in test [2], the affinity corresponds to a Ki of 5.1 nM.

`O=C(CC1CCc2cc(Br)cc3[nH]c(=O)c(=O)n1c23)Nc1ccccc1` (stereo not given) gave an inhibition in test [1] of 92.9%. The same compound came in with an inhibition constant (Ki) in test [2] of 2.6 nM.

For `Nc1ccc(NC(=O)CC2CCc3cc(Br)cc4[nH]c(=O)c(=O)n2c34)cc1` (stereo not given), the inhibition in test [1] stood at 76.4%.

For the compound `O=C(CC1CCc2cc(Cl)cc3[nH]c(=O)c(=O)n1c23)Nc1ccccc1` (stereo not given), the inhibition in test [1] came out at 79.3%. For the same compound, the Ki in test [2] turned out to be 6.6 nM.
